{
  "source": "paper PMC3454376",
  "about": "“Salidroside Improves Behavioral and Histological Outcomes and Reduces Apoptosis via PI3K/Akt Signaling after Experimental Traumatic Brain Injury” (PLoS ONE, 2012)",
  "key": {"p-FOXO1": {"system": "p-FOXO1", "experiment": "Western blot, injured cortex", "type": "in vivo, mice", "conditions": "20 mg/kg ip 10 min after CCI; days 1 and 3; P>0.05", "method": "(§1) Mice were anesthetized and positioned in a stereotaxic frame. LY294002 (200 nM in 0.5 µL of saline) or equal amount of physiological saline was intracerebroventricularly (icv) injected at 30 min before CCI as previously described. A 1 mm cranial burr hole was drilled into the skull. A 30-gauge needle on a Hamilton syringe was implanted into the lateral ventricle using stereotactic coordinates: 1.5 mm posterior to bregma and 1.0 mm right lateral to the midline, 2 mm in depth. LY294002 or saline was infused into the brain at a rate of 0.05 µL/min over 10 min with an infusion pump (KDS 310, KD Scientific Inc., Holliston, MA, USA), and the needle was left in place for an additional 20 min to prevent reflux. After the needle was removed, CCI procedure was conducted immediately. Sham-operated mice were infused icv with saline, but were not subjected to CCI.\n(§2) Three sets of experiments were performed. The first set was to investigate the protective effects of salidroside. All animals were randomized into 1 of 3 groups (sham injury, CCI + vehicle, CCI + SALD 20). Surgery/injury, behavioral testing, and tissue analyses were performed by different individuals. Behavioral testing and tissue analyses were performed by individuals blinded to the treatment group. Salidroside (Cayman Chemical, Ann Arbor, MI, USA) dissolved in normal saline (0.25 mL) or a corresponding volume of vehicle (saline) was administered intraperitoneally 10 min following injury. Testing after injury was completed as follows: 1) behavioral testing at days 1, 4, 7, 14, 21, and 28 (n = 8–10 mice/group); 2) cresyl violet staining at day 28 (n = 9 mice/group); 3) histology, determination of brain water content, and western blot analysis at day 1 or 3 (n = 5–6 mice/group). To determine the optimal dose of salidroside, a pilot study was performed using 2 different doses (20 and 50 mg/kg) administered 10 min after injury, and neurological deficits and tissue damage were evaluated as the main outcomes. […] The second set of experiment was to assess the effect of the inhibition of PI3K/Akt with the specific PI3K inhibitor, LY294002 (Cell Signaling Technology, Danvers, MA, USA), on salidroside effects. Animals were randomized into 4 groups. Mice received either: 1) icv pretreatment of LY294002 followed by SALD 20 after CCI (S20Y group); or 2) icv pretreatment of saline (vehicle control) followed by SALD 20 after CCI (S20V group). 3) Mice were infused icv with saline and were subjected to sham injury. 4) Mice were infused icv with LY294002 and were subjected to sham injury. Testing after injury was completed as follows: 1) cresyl violet staining at day 28 (n = 6 mice/group); 2) western blot analysis at day 1 (n = 6 mice/group). The third set of experiment was performed to examine the neuroprotective time window afforded by salidroside. Mice received intraperitoneal SALD 20 or vehicle (saline) at 3 or 6 h following CCI and were sacrificed 1 day later for FJB staining and western blot analysis (n = 6 mice/group).\n(§3) Brains of injured or sham animals were collected 1 day and 3 days post CCI or sham surgery, and a 4 mm coronal section from the injured area over the parietal cortex and ipsilateral hippocampus were collected. The protein samples were obtained from tissue homogenates in 300 µL of ice-cold reagent (T-PER reagent; Pierce Biotechnology, Rockford, IL, USA) with a complete mini protease inhibitor cocktail (Roche Molecular Biochemicals) centrifuged at 14000g for 30 min. Protein concentration was determined by Bradford reagent spectrophotometrically at A595. Equal amounts of protein samples were denatured in gel-loading buffer at 100°C for 5 min, and then loaded onto sodium dodecyl sulfate-polyacrylamide gels to be separated. Separated proteins were transferred to Immobilon-P membranes (Millipore, Billerica, MA, USA), blocked with the use of 5% milk in PBST and probed with primary antibodies. […]"}, "p-Akt Ser473": {"system": "p-Akt Ser473", "experiment": "Western blot, injured cortex", "type": "in vivo, mice", "conditions": "for p-Akt Ser473 level, % of the vehicle level: 20 mg/kg ip 10 min after CCI", "method": "as §1, §2, §3"}, "p-Akt Thr308": {"system": "p-Akt Thr308", "experiment": "Western blot, injured cortex", "type": "in vivo, mice", "method": "as §1, §2, §3"}, "p-Bad": {"system": "p-Bad", "experiment": "Western blot, injured cortex", "type": "in vivo, mice", "conditions": "20 mg/kg ip 10 min after CCI; days 1 and 3; P>0.05", "method": "as §1, §2, §3"}, "[1]": {"system": "primary cultured cortical neurons", "experiment": "MTT cell viability after in vitro neuronal stretch injury", "type": "cell-based, C57BL/6 mice", "conditions": "added immediately after injury, MTT at 24 h, stretch alone 61.8±1.5%", "method": "All culture medium supplies were from Invitrogen (Invitrogen, Carlsbad, CA, USA). Cortical neuronal cells were prepared from embryonic day 15.5 C57BL/6 mice and cultured in serum-free conditions as previously described. Briefly, the cortices were isolated and digested in 0.5 mg/mL papain at 37°C for 15 min, followed by dissociation in Hibernate-A medium (containing B27 supplement) by aspirating trituration. The cells were then plated onto poly-L-lysine-coated 6-well silastic culture plates (Flexcell International Corporation, Hillsborough, NC, USA) at a density of 5×10^4 cells/cm^2 and maintained in Neurobasal medium supplemented with B27, 10 units/mL penicillin, […], and 0.5 mg/mL glutamine. Four days after plating, 50% of the medium was removed and replaced with fresh medium. The cells were cultured at 37°C in a humidified tri-gas incubator (5%O2, 90% N2, and 5% CO2) and were used at day 10 in vitro. The cortical cultures contain mostly neurons and there were <2% of glia cells, as determined by immunohistochemical staining.\nCultures were stretched by rapid deformation of the silastic culture plates (Flexplates), using the Cell Injury Controller II (Custom Design and Fabrication; Virginia Commonwealth University, Richmond, VA, USA) as previously described. This device uses a regulated flow of compressed gas to rapidly pressurize cells cultured on flexible substrates, causing a radial stretch injury. […] This stimulus intensity corresponds to the “moderate stretch” [62]. The primary cultured neurons were treated with 0.1, 1, 10, 20, and 50 µM salidroside, respectively, immediately following injury. The cortical neurons cultured in plain medium served as control. Cell viability analysis was performed 24 h after injury.\nThe cell viability was determined by assessing the degree of MTT reduction. Briefly, cells were incubated at 37°C for 2 h with MTT (0.5 mg/mL final concentration; Sigma-Aldrich; St. Louis, MO, USA). Afterwards, a solution of anhydrous isopropanol, HCl (0.1 N), and 0.1% Triton X-100 was added for the dissolution of formazan crystal. The optical density was determined at 570 nm using a microplate reader. Cell viability was expressed as a percentage of the control culture. The experiments were repeated 4 times with different batches of primary cultures."}, "[2]": {"conditions": "20 mg/kg ip 10 min after injury, day 1"}},
  "data": [
    {"smiles": "OC[C@H]1O[C@@H](OCCc2ccc(O)cc2)[C@H](O)[C@@H](O)[C@@H]1O", "note": "[SALD, salidroside]", "values": [
      {"measurement": "p-FOXO1 level versus vehicle group", "setting": "p-FOXO1", "value": "no difference"},
      {"measurement": "p-Akt Ser473 level, % of the vehicle level", "setting": "p-Akt Ser473; day 1, P<0.05", "value": 200.7, "unit": "%"},
      {"measurement": "p-Akt Ser473 level, % of the vehicle level", "setting": "p-Akt Ser473; day 3, P>0.05", "value": 146.9, "unit": "%"},
      {"measurement": "increase of p-Akt Ser473 level", "setting": "p-Akt Ser473; [2]", "value": 100.7, "unit": "%"},
      {"measurement": "change of p-Akt Ser473 level (attenuated by)", "setting": "p-Akt Ser473; 20 mg/kg ip 3 h after injury, day 1", "value": 46.2, "unit": "%"},
      {"measurement": "p-Akt Thr308 level, % of the vehicle level", "setting": "p-Akt Thr308; 20 mg/kg ip 10 min after CCI, day 3, P<0.05", "value": 176.0, "unit": "%"},
      {"measurement": "increase of p-Akt Thr308 level", "setting": "p-Akt Thr308; [2]", "value": 30.3, "unit": "%"},
      {"measurement": "change of p-Akt Thr308 level (attenuated by)", "setting": "p-Akt Thr308; 20 mg/kg ip 3 h after injury, day 1, not significant", "value": 19.5, "unit": "%"},
      {"measurement": "p-Bad level versus vehicle group", "setting": "p-Bad", "value": "no difference"},
      {"measurement": "cell survival after stretch injury (relative to control)", "setting": "[1]; 0.1 µM, P>0.05", "value": "65.3±1.3", "unit": "%"},
      {"measurement": "cell survival after stretch injury (relative to control)", "setting": "[1]; 1 µM, P<0.001", "value": "72.5±1.6", "unit": "%"},
      {"measurement": "cell survival after stretch injury (relative to control)", "setting": "[1]; 10 µM, P<0.001", "value": "90.9±1.4", "unit": "%"},
      {"measurement": "cell survival after stretch injury (relative to control)", "setting": "[1]; 20 µM, P<0.001", "value": "91.4±1.4", "unit": "%"},
      {"measurement": "cell survival after stretch injury (relative to control)", "setting": "[1]; 50 µM, P<0.001", "value": "90.5±1.4", "unit": "%"}
    ]}
  ]
}
